Measured values as given in PMC4633474, “Kinetic properties and stability of glucose dehydrogenase from Bacillus amyloliquefaciens SB5 and its potential for cofactor regeneration” (AMB Express, 2015).

Target: T1, GluDH-BS (Bacillus subtilis, UniProt P12310)
T1 construct: gene gdh; full length, plasmid pHGBS, overexpressed in B. subtilis 168 (strain BS), crude cell-free extract
Test: NADPH formation at […] nm, crude extract
Assay type: biochemical
Details: glucose, CPB buffer, 37 °C; turnover only

T1 sequence (P12310 whole entry): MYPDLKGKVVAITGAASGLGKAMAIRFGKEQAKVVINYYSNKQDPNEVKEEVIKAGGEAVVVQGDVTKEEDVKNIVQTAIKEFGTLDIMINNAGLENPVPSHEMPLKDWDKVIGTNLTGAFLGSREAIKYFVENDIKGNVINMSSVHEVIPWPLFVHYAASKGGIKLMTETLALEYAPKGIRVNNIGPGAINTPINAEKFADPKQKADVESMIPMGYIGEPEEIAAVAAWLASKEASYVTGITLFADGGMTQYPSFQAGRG

## NC(=O)c1ccc[n+]([C@@H]2O[C@H](COP(=O)(O)OP(=O)(O)OC[C@H]3O[C@@H](n4cnc5c(N)ncnc54)[C@H](OP(=O)(O)O)[C@@H]3O)[C@@H](O)[C@H]2O)c1 [NADP^+]
  NADPH formation at 340 nm, crude extract: crude GluDH-BS (closed circle) and GluDH-BA (open circle) when using NADP^+ as a cofactor
